From patent US20130096119A1, “Isoquinolin-3-Ylurea Derivatives” (priority 2010, published 2013) come the findings set out here.

Converted amounts (≈) assume the structure as drawn.

This test has as its system S. pneumoniae ATCC 49619. The experiment in a line: Minimal inhibitory concentration (MIC) by microdilution method (CLSI M7-A7). The format is cell-based, Streptococcus pneumoniae. The settings on record: Streptococcus pneumoniae, ATCC49619, cation-adjusted Mueller-Hinton Broth supplemented with 3% (v/v) lysed horse blood. The method, boiled down:
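Broth microdilution per CLSI M7-A7 in cation-adjusted Mueller-Hinton broth, supplemented with 3% (v/v) lysed horse blood for S. pneumoniae; MIC reported in mg/l.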

As to `CCNC(=O)Nc1cc2c(-c3ccc(CO)cc3)ccc(Oc3cccnc3)c2cn1` [Example 221, 1-ethyl-3-[5-(4-hydroxymethyl-phenyl)-8-(pyridin-3-yloxy)-isoquinolin-3-yl]-urea], the MIC – broadly, the lowest concentration found to suppress growth – was determined as 0.5 µg/mL (≈ 1.21 µM).

As to `CCNC(=O)Nc1cc2c(-c3ccncc3)ccc(Oc3cccnc3)c2cn1` [Example 222, 1-ethyl-3-[5-pyridin-4-yl-8-(pyridin-3-yloxy)-isoquinolin-3-yl]-urea], 1 µg/mL (≈ 2.59 µM) was the least that counted as inhibitory (MIC). This MIC is about 2-fold higher than that of the compound before.

On to `CCNC(=O)Nc1cc2c(-c3cccnc3)ccc(Oc3cccnc3)c2cn1` [Example 223, 1-ethyl-3-[5-pyridin-3-yl-8-(pyridin-3-yloxy)-isoquinolin-3-yl]-urea], for which the MIC is 0.5 µg/mL (≈ 1.3 µM).

As for `CCNC(=O)Nc1cc2c(-c3cccnc3)ccc(Nc3cccnc3)c2cn1` [Example 224, 1-ethyl-3-[5-pyridin-3-yl-8-(pyridin-3-ylamino)-isoquinolin-3-yl]-urea], it took 0.5 µg/mL (≈ 1.3 µM) to inhibit growth (MIC).

In the case of `CCNC(=O)Nc1cc2c(-c3ccnc(OC)c3)ccc(Nc3cccnc3)c2cn1` [Example 225, 1-ethyl-3-[5-(2-methoxy-pyridin-4-yl)-8-(pyridin-3-ylamino)-isoquinolin-3-yl]urea], the MIC was 0.125 µg/mL (≈ 0.302 µM). Against the preceding compound, the MIC is about 4-fold lower.

For the compound `CCNC(=O)Nc1cc2c(-c3ccc(CO)cc3)ccc(Nc3cccnc3)c2cn1` [Example 226, 1-ethyl-3-[5-(4-hydroxymethyl-phenyl)-8-(pyridin-3-ylamino)-isoquinolin-3-yl]-urea], the MIC worked out at 1 µg/mL (≈ 2.42 µM).

In turn, `CCNC(=O)Nc1cc2c(-c3ccncc3)ccc(Nc3cccnc3)c2cn1` [Example 227, 1-ethyl-3-[5-pyridin-4-yl-8-(pyridin-3-ylamino)-isoquinolin-3-yl]-urea] had a minimal inhibitory concentration (MIC) of 0.125 µg/mL (≈ 0.325 µM).

Turning to `CCNC(=O)Nc1cc2c(-c3ccc(O)cc3)ccc(Nc3cccnc3)c2cn1` [Example 228, 1-ethyl-3-[5-(4-hydroxy-phenyl)-8-(pyridin-3-ylamino)-isoquinolin-3-yl]-urea], inhibition of growth (MIC) required 2 µg/mL (≈ 5.01 µM).

As for `CCNC(=O)Nc1cc2c(-c3ccnc(C)c3)ccc(Nc3cccnc3)c2cn1` [Example 229, 1-ethyl-3-[5-(2-methyl-pyridin-4-yl)-8-(pyridin-3-ylamino)-isoquinolin-3-yl]-urea], the lowest concentration to inhibit growth (MIC) was 0.25 µg/mL (≈ 0.627 µM).

`CCNC(=O)Nc1cc2c(-c3ccc(S(N)(=O)=O)cc3)ccc(Nc3cccnc3)c2cn1` [Example 230, 4-[3-(3-ethyl-ureido)-8-(pyridin-3-ylamino)-isoquinolin-5-yl]-benzenesulfonamide] displayed an MIC of 0.5 µg/mL (≈ 1.08 µM).

For `CCNC(=O)Nc1cc2c(-c3cc(C)nc(C)c3)ccc(Nc3cccnc3)c2cn1` [Example 231, 1-[5-(2,6-dimethyl-pyridin-4-yl)-8-(pyridin-3-ylamino)-isoquinolin-3-yl]-3-ethyl-urea], the MIC worked out at 0.5 µg/mL (≈ 1.21 µM).

In turn, `CCNC(=O)Nc1cc2c(-c3cccc(CN)c3)ccc(Nc3cccnc3)c2cn1` [Example 232, 1-(5-(3-(aminomethyl)phenyl)-8-(pyridin-3-ylamino)isoquinolin-3-yl)-3-ethylurea] displayed an MIC of 2 µg/mL (≈ 4.85 µM).

Turning to `CCNC(=O)Nc1cc2c(-c3ccnc(N)c3)ccc(Nc3cccnc3)c2cn1` [Example 233, 1-[5-(2-amino-pyridin-4-yl)-8-(pyridin-3-ylamino)-isoquinolin-3-yl]-3-ethyl-urea], 0.5 µg/mL (≈ 1.25 µM) was the least that counted as inhibitory (MIC).

The compound `CCNC(=O)Nc1cc2c(F)c(-c3cccc(NC(C)=O)c3)cc(Nc3cccnc3)c2cn1` [Example 234, N-{3-[3-(3-ethyl-ureido)-5-fluoro-8-(pyridin-3-ylamino)-isoquinolin-6-yl]phenyl}-acetamide] came in with an MIC of 0.25 µg/mL (≈ 0.545 µM).

Take `CCNC(=O)Nc1cc2c(F)c(-c3cncc(C)c3)cc(Nc3cccnc3)c2cn1` [Example 235, 1-ethyl-3-[5-fluoro-6-(5-methyl-pyridin-3-yl)-8-(pyridin-3-ylamino)-isoquinolin-3-yl]urea]: it took 0.25 µg/mL (≈ 0.6 µM) to inhibit growth (MIC).

`CCNC(=O)Nc1cc2cc(-c3cccc(NC(C)=O)c3)cc(Nc3cccnc3)c2cn1` [Example 236, N-{3-[3-(3-ethyl-ureido)-8-(pyridin-3-ylamino)-isoquinolin-6-yl]-phenyl}-acetamide] returned an MIC of 0.5 µg/mL (≈ 1.14 µM). This MIC is about 2-fold higher than that of the compound before.

Compound `CCNC(=O)Nc1cc2cc(-c3cncc(C)c3)cc(Nc3cccnc3)c2cn1` [Example 237, 1-ethyl-3-[6-(5-methyl-pyridin-3-yl)-8-(pyridin-3-ylamino)-isoquinolin-3-yl]-urea] yielded a minimum inhibitory concentration (MIC) of 0.25 µg/mL (≈ 0.627 µM).

Take `CCCNc1cc(Nc2cccnc2)c2cnc(NC(=O)NCC)cc2c1` [Example 238, 1-ethyl-3-[6-propylamino-8-(pyridin-3-ylamino)-isoquinolin-3-yl]-urea]: the MIC turned out to be 0.5 µg/mL (≈ 1.37 µM).

Turning to `CCNC(=O)Nc1cc2cc(NCc3ccccc3)cc(Nc3cccnc3)c2cn1` [Example 239, 1-[6-benzylamino-8-(pyridin-3-ylamino)-isoquinolin-3-yl]-3-ethyl-urea], inhibition of growth (MIC) required 0.5 µg/mL (≈ 1.21 µM).

`CCNC(=O)Nc1cc2c(F)c(NCc3ccccc3)cc(Nc3cccnc3)c2cn1` [Example 240, 1-[6-benzylamino-5-fluoro-8-(pyridin-3-ylamino)-isoquinolin-3-yl]-3-ethyl-urea] came in with a minimal inhibitory concentration (MIC) of 2 µg/mL (≈ 4.65 µM). Compared with the last compound, the MIC is about 4-fold higher.

`CCNC(=O)Nc1cc2cc(NC(=O)c3cccc(N(C)C)c3)cc(Nc3cccnc3)c2cn1` [Example 241, 3-dimethylamino-N-[3-(3-ethyl-ureido)-8-(pyridin-3-ylamino)-isoquinolin-6-yl]-benzamide] returned an MIC of at most 0.031 µg/mL.

The compound `CCNC(=O)Nc1cc2cccc(Nc3ccc(OC)c(C(N)=O)c3)c2cn1` [Example 242, 5-[3-(3-ethyl-ureido)-isoquinolin-8-ylamino]-2-methoxy-benzamide] had an MIC of 0.5 µg/mL (≈ 1.32 µM).

Consider `CCNC(=O)Nc1cc2cccc(Nc3ccc(OC)c(C(=O)NC)c3)c2cn1` [Example 243, 5-[3-(3-ethyl-ureido)-isoquinolin-8-ylamino]-2-methoxy-N-methyl-benzamide], for which the MIC is 1 µg/mL (≈ 2.54 µM). This MIC lies about 2-fold higher than the previous one.

Consider `CCNC(=O)Nc1cc2cccc(Nc3ccc(OC)c(C(=O)N(C)C)c3)c2cn1` [Example 244, 5-[3-(3-ethyl-ureido)-isoquinolin-8-ylamino]-2-methoxy-N,N-dimethyl-benzamide], for which the MIC is 2 µg/mL (≈ 4.91 µM).

`CCNC(=O)Nc1cc2c(-c3ccnc(C)c3)ccc(Nc3ccc(C)nc3)c2cn1` [Example 245, 1-ethyl-3-[5-(2-methyl-pyridin-4-yl)-8-(6-methyl-pyridin-3-ylamino)-isoquinolin-3-yl]urea]: the MIC worked out at 0.5 µg/mL (≈ 1.21 µM).

Compound `CCNC(=O)Nc1cc2c(-c3ccnc(C)c3)ccc(Nc3cccc(C(=O)O)c3)c2cn1` [Example 246, 3-[3-(3-ethyl-ureido)-5-(2-methyl-pyridin-4-yl)-isoquinolin-8-ylamino]-benzoic acid] came in with an MIC of 0.5 µg/mL (≈ 1.13 µM).

Compound `CCNC(=O)Nc1cc2c(-c3ccnc(C)c3)ccc(Nc3cccc(C(=O)NC)c3)c2cn1` [Example 247, 3-[3-(3-ethyl-ureido)-5-(2-methyl-pyridin-4-yl)-isoquinolin-8-ylamino]-N-methyl-benzamide] gave an MIC of 0.25 µg/mL (≈ 0.55 µM).

`CCNC(=O)Nc1cc2c(-c3ccnc(C)c3)ccc(Nc3cccc(C(=O)N(C)C)c3)c2cn1` [Example 248, 3-[3-(3-ethyl-ureido)-5-(2-methyl-pyridin-4-yl)-isoquinolin-8-ylamino]-N,N-dimethyl-benzamide] yielded an MIC of 0.5 µg/mL (≈ 1.07 µM). This MIC lies about 2-fold higher than the previous one.

`CCNC(=O)Nc1cc2c(-c3ccc(CO)cc3)ccc(Nc3cccc(C(=O)O)c3)c2cn1` [Example 249, 3-[3-(3-ethyl-ureido)-5-(4-hydroxymethyl-phenyl)-isoquinolin-8-ylamino]-benzoic acid]: inhibition of growth (MIC) required 0.5 µg/mL (≈ 1.1 µM).

`CCNC(=O)Nc1cc2c(-c3ccc(CO)cc3)ccc(Nc3cccc(C(=O)NC)c3)c2cn1` [Example 250, 3-[3-(3-ethyl-ureido)-5-(4-hydroxymethyl-phenyl)-isoquinolin-8-ylamino]-N-methyl-benzamide] registered a minimal inhibitory concentration (MIC) of 1 µg/mL (≈ 2.13 µM). This MIC lies about 2-fold higher than the previous one.

For `CCNC(=O)Nc1cc2c(-c3ccc(CO)cc3)ccc(Nc3cccc(C(=O)N(C)C)c3)c2cn1` [Example 251, 3-[3-(3-ethyl-ureido)-5-(4-hydroxymethyl-phenyl)-isoquinolin-8-ylamino]-N,N-dimethyl-benzamide], the MIC worked out at 1 µg/mL (≈ 2.07 µM).

Compound `CCNC(=O)Nc1cc2cccc(Nc3ccc(C(N)=O)cc3)c2cn1.Cl` [Example 252, 4-[3-(3-ethyl-ureido)-isoquinolin-8-ylamino]-benzamide hydrochloride] yielded an MIC of 2 µg/mL.

The compound `CCNC(=O)Nc1cc2cccc(Nc3ccc(CC(N)=O)cc3)c2cn1.Cl` [Example 253, 2-{4-[3-(3-ethyl-ureido)-isoquinolin-8-ylamino]-phenyl}-acetamide hydrochloride] returned an MIC of 4 µg/mL.

Consider `CCNC(=O)Nc1cc2cccc(Nc3cccc(C(N)=O)c3)c2cn1.Cl` [Example 254, 3-[3-(3-ethyl-ureido)-isoquinolin-8-ylamino]-benzamide hydrochloride], for which inhibition of growth (MIC) required 1 µg/mL.

Compound `CCNC(=O)Nc1cc2cccc(Nc3cccc(CC(N)=O)c3)c2cn1.Cl` [Example 255, 2-{3-[3-(3-ethyl-ureido)-isoquinolin-8-ylamino]-phenyl}-acetamide hydrochloride] showed a minimal inhibitory concentration (MIC) of 4 µg/mL.

In turn, `CCNC(=O)Nc1cc2cccc(COc3ccc(C)nc3)c2cn1.Cl` [Example 256, 1-ethyl-3-[8-(6-methyl-pyridin-3-yloxymethyl)-isoquinolin-3-yl]-urea hydrochloride] had an MIC of 8 µg/mL. Compared with the last compound, the MIC is about 2-fold higher.

On to `CCNC(=O)Nc1cc2cccc(COc3ccc(C)cn3)c2cn1.Cl` [Example 257, 1-ethyl-3-[8-(5-methyl-pyridin-2-yloxymethyl)-isoquinolin-3-yl]-urea hydrochloride], for which the minimal inhibitory concentration (MIC) was 8 µg/mL.

For `CCNC(=O)Nc1cc2cccc(COc3ccccc3C(=O)OC)c2cn1.Cl` [Example 258, 2-[3-(3-ethyl-ureido)-isoquinolin-8-ylmethoxy]-benzoic acid methyl ester hydrochloride], the lowest concentration to inhibit growth (MIC) was 8 µg/mL.

With `CCNC(=O)Nc1cc2cccc(COc3cccnc3C)c2cn1.Cl` [Example 259, 1-ethyl-3-[8-(2-methyl-pyridin-3-yloxymethyl)-isoquinolin-3-yl]-urea hydrochloride], the MIC stood at 4 µg/mL.
